In a melting point compilation (Tetko et al.; mined from patent text by program, amines drawn as free bases though some values may be those of a salt) one finds melting point data, which are given here for 93 molecules.

Molecules are shown by their SMILES. Residues, ends and D or L forms follow the SMILES beside them. *: point of attachment. Cbz = O=C(OCc1ccccc1)*

As a reminder, the melting point is the temperature of the solid-liquid transition.

`Cn1c(CCNC(=O)OCc2ccccc2)nc(-c2ccncn2)cc1=O` yielded a melting point of 121 to 123 °C.

Molecule `COC(=O)c1ccccc1-c1ccc(N(C)C)cn1` registered a melting point of 161 to 163 °C.

For `CCC(OCc1ccc(-c2ccc(Cl)cc2)cc1)(C(=O)OC)c1ccccc1` (stereo not drawn), the melting point lay in the range of 68 to 72 °C.

Turning to `O=C1Nc2ccc(CN3C(=O)CSC3=O)c(F)c2C1=Cc1cc(CN2CCOCC2)c[nH]1`, the melting point lay within 246 to 248 °C.

On to `CN(C)CCCOc1ccc(N(C(=O)c2ccc(Cl)cc2)c2ccccc2)cc1`, for which the melting point fell in the range of 81.5 to 85.5 °C.

`CCC(CC)(CO)CS(N)(=O)=O` gave a melting point of 66 to 68 °C.

`CCCc1nn(C)c2c(=O)[nH]c(-c3cc4cccc(OCC)c4o3)nc12` gave a melting point of 227 to 229 °C.

As for `O=C(c1nccs1)c1cnn2c(-c3cccnc3)ccnc12`, the melting point lay within 262 to 264 °C.

The molecule `CN1CCC(O)(C#N)CC1` had a melting point of 130 to 133 °C.

`Cc1ccccc1CCOS(N)(=O)=O`: the melting point fell in the range of 50 to 52 °C.

On to `Cn1ncc2c(c1=O)SCCNC2C(=O)c1ccc([N+](=O)[O-])cc1` (stereo not drawn), for which the melting point lay within 230 to 232 °C.

Take `O=C1Nc2ccccc2SCC1c1ccc(Cl)cc1` (stereo not drawn): the melting point came to 180 °C.

`CCOC(=O)c1cc2cc(NC(C)=O)ccc2[nH]1` came in with a melting point of 202 to 203 °C.

Take `O=C(O)c1ccc2c(c1)Nc1ccccc1S2`: the melting point was > 235 °C.

`N#Cc1cc(-n2cccc2)cnc1Cl` displayed a melting point of 144 to 146 °C.

For `ON=C1c2ccccc2CCC1Br` (stereo not drawn), the melting point lay within 125 to 131 °C.

Consider `Nc1cccc(Oc2ccc(C(=O)c3cccc(C(=O)c4ccc(Oc5cccc(N)c5)cc4)c3)cc2)c1`, for which the melting point lay in the range of 147 to 149 °C.

`O=C1OC(Cc2ccccc2)CN1c1cccc(F)c1` (stereo not drawn) came in with a melting point of 96 to 97.5 °C.

`O=C(O)Cc1c(C(=O)c2ccc3c(c2)OCCO3)[nH]c2cc(Cl)ccc12` returned a melting point of 233 °C.

The molecule `O=c1nc(-c2c(-c3ccccc3)nn3ccccc23)cc[nH]1` gave a melting point of 287 to 289 °C.

`OC1(c2cccc(C(F)(F)F)c2)CCN(CCCC2(c3ccc(F)cc3F)OCCO2)CC1` returned a melting point of 90 to 93 °C.

`Nc1ccc(F)c(-c2cncnc2)c1F` gave a melting point of 141 to 143 °C.

For `CC(=O)Oc1ccc(-c2cnc(C)[nH]c2=O)cc1OC(C)=O`, the melting point was 178 to 179 °C.

On to `COc1c(C=Cc2ccc(C=CC3=C(C#N)C(=C(C#N)C#N)OC3(c3ccccc3)C(F)(F)F)s2)cc2c3c1CCCN3CCC2` (stereo not drawn), for which the melting point lay within 156 to 160 °C.

For `c1ccc(C(c2ccccc2)(c2ccns2)n2cncn2)cc1`, the melting point is 235 to 240 °C.

Turning to `Cc1cc(C)cc(S(=O)c2c(C(C)C)nc(C)n2C)c1` (stereo not drawn), the melting point lay within 100 to 101 °C.

In the case of `N#CCCNCCCC(=O)O`, the melting point was in the range of 122 to 124 °C.

`O=C(O)c1ncn(C(c2ccccc2)c2ccccc2)c1C(=O)O` came in with a melting point of 194 °C.

As for `CCOC(=O)c1cnc(Nc2ccccc2O)[nH]c1=O`, the melting point was 289 to 291 °C.

`C#CCc1c(C)nc2c(OCc3ccccc3)cccn12` gave a melting point of 112 °C.

For `CCOP(=O)(CNc1cc(Oc2ccc(C(F)(F)F)cc2Cl)ccc1[N+](=O)[O-])OCC`, the melting point fell in the range of 78 to 79 °C.

`O=C(c1ccc([N+](=O)[O-])cc1)N1CCc2cn[nH]c2-c2ncccc21` yielded a melting point of 255 to 256 °C.

In turn, `Cc1nn(C(C)(C)C)c(N)c1C#N` came in with a melting point of 156 to 157 °C.

For the molecule `COc1cc(OC)cc(N2CCN(C(=O)Nc3nc4ccccc4nc3OC)CC2)c1`, the melting point was 140 to 141 °C.

As to `CCC(CC)c1ccc(Cl)c2nc3n(c12)CCCCN3c1ccc(Cl)cc1`, the melting point lay in the range of 133 to 135 °C.

In the case of `CCCSc1nc(-c2ccc(C#N)cc2)cn1-c1ccc(C#N)cc1`, the melting point fell in the range of 117 to 122 °C.

In turn, `CC(C)CC1Cc2cc(OCC(=O)O)c(Cl)c(Cl)c2C1=O` (stereo not drawn) came in with a melting point of 192 °C.

`Cc1cc(-c2cnn3c(C(F)(F)F)cc(-c4ccc(Cl)c(Cl)c4)nc23)ccn1` registered a melting point of 275 °C.

In turn, `CCCN(Cc1ccc(-c2ccccc2-c2nnn[nH]2)cc1)c1ncccc1C(=O)O` came in with a melting point of 202 to 204 °C.

As to `ClC=C(c1ccc(Cl)cc1)c1ccc(Cl)cc1`, the melting point was in the range of 65 to 67 °C.

Molecule `NNc1c([N+](=O)[O-])cnn1-c1c(Cl)cc(C(F)(F)F)cc1Cl` displayed a melting point of 133 to 135 °C.

The molecule `CCOC(=O)Cc1nc(-c2ccc(OC)cc2)oc1-c1ccco1` returned a melting point of 64 to 66 °C.

For the molecule `CCCCCCCCCCCC1N(C(C)=O)c2ccccc2-c2c([N+](=O)[O-])cnn21` (stereo not drawn), the melting point lay in the range of 83 to 85 °C.

With `O=C(O)C1CCN(c2cc(-c3ccc(Cl)cc3)nc3ccccc23)CC1`, the melting point lay within 245 to 247 °C.

In turn, `CCC(C)(C)c1csc(C(C#N)=C(O)c2c(F)cccc2F)n1` had a melting point of 195 to 196 °C.

On to `COC(=O)Nc1nc2ccc(OS(=O)(=O)c3ccc(-n4ccnc4)cc3)cc2[nH]1`, for which the melting point worked out at 258 °C.

`O=[N+]([O-])c1cccc(OCCCl)c1` gave a melting point of 54.5 to 57 °C.

In the case of `N#Cc1ccc(-c2cc(C(=O)N[C@H]3CC[C@H](C(=O)O)CC3)c(=O)n(Cc3ccccc3)n2)cc1`, the melting point is 215 to 218 °C.

In the case of `CC(C)n1cc(C2(c3ccc(F)c(Br)c3)N=C(N)N(C)C2=O)cn1` (stereo not drawn), the melting point is 80 to 82 °C.

As for `CN1C(=O)CC[C@]2(C)c3ccc(-c4ccc(Cl)c(Cl)c4)cc3CC[C@@H]12`, the melting point fell in the range of 129 to 135 °C.

`CCOC(=O)c1cnn(-c2ccc(OC)cc2)c1N` showed a melting point of 209 to 211 °C.

The molecule `O=C(c1cccc(O)c1)c1cccc(Cl)c1` came in with a melting point of 104 °C.

`O=S1(=O)CCc2nn(-c3ccc(Cl)cc3F)c(Cl)c2C1`: the melting point lay within 141 to 143 °C.

`CC(C)S(=O)(=O)NC(=O)Nc1ccc(Cl)c(Cl)c1` registered a melting point of 151 to 154 °C.

Turning to `CCc1nc2c(N)nc3ccccc3c2n1CCOCCNC(=O)Nc1ccccc1`, the melting point was 141 to 144 °C.

In the case of `CC(C)CC(=O)Nc1cc(-c2ccnc3c(C(=O)c4cccs4)cnn23)ccc1F`, the melting point was 192 to 194 °C.

In turn, `CC(C)(C)OC(=O)N1CCC(CC[C@@H]2CCCNC2=O)CC1` yielded a melting point of 110 to 111 °C.

For the molecule `C=C(C)OC(=O)N1C(=O)[C@H](C)Nc2nc(Cl)ccc21`, the melting point was 86 to 87 °C.

On to `O=C(NCCO)c1ccc(/C=C/c2ccccc2OCc2ccccc2)cc1`, for which the melting point was 149 to 151 °C.

Take `CCCCc1ncc(/C=C(\Cc2cccs2)C(=O)O)n1Cc1cccc(OC)c1[N+](=O)[O-]`: the melting point fell in the range of 213 to 215 °C.

`CS(=O)(=O)N[C@H]1CC[C@H](CCN2CCC(c3cccc4c3CCO4)CC2)CC1` gave a melting point of 152 °C.

On to `COC(=O)C(Cc1ccccc1)NC(=O)C(CC(N)=O)NC(=O)OCc1ccccc1` (stereo not drawn) (Cbz-Asn-Phe-OMe; configuration not given here), for which the melting point lay in the range of 196 to 197 °C.

In turn, `CC(=O)C=Cc1ccc2c(c1)OCCO2` had a melting point of 80 °C.

Molecule `CCN1CN=C2SCC(O)(c3ccc(Br)cc3)N2C1` (stereo not drawn) had a melting point of 132 to 134 °C.

`CC(C(=O)N(C)C)n1nc(-c2ccccc2)c(Cl)c1Cl` (stereo not drawn) gave a melting point of 102 to 103 °C.

As for `CC(C)(C)c1cc(N(C(=O)C=CC(=O)O)c2ccccc2)cc(C(C)(C)C)c1O`, the melting point was 154 to 157 °C.

`Clc1ccccc1Cc1cccc2[nH]ccc12`: the melting point was in the range of 76 to 77 °C.

`O=[N+]([O-])c1ccc2[nH]cc(Cn3ccnc3)c2c1` returned a melting point of 230 to 232 °C.

The molecule `CC(C)(C(=O)c1ccc(Cl)cc1)n1cncn1` registered a melting point of 111 °C.

`CS(=O)(=O)Oc1cc(NN)c(F)cc1Cl`: the melting point lay in the range of 75 to 77 °C.

As for `Cn1c(C(F)(F)F)cc(=O)n(-c2ccc(Cl)c3c2OC(C)(C)C3=O)c1=O`, the melting point lay within 177 to 178 °C.

The molecule `CC(C)Oc1nc(N)nc2ccc(-c3ccc(F)cc3)nc12` had a melting point of 191 to 192 °C.

With `Cn1c(C(F)(F)F)cc(=O)n(-c2cc(OCC3CO3)c(Cl)cc2F)c1=O` (stereo not drawn), the melting point was 93 to 96 °C.

Turning to `Cc1nc(C(F)(F)F)ccc1/C=C/C(=O)Nc1ccc2[nH]ccc2c1`, the melting point came out at 231 °C.

As for `CN1CCC23CC(=O)C=CC2C1Cc1cccc(Oc2nnnn2-c2ccccc2)c13` (stereo not drawn), the melting point lay in the range of 172 to 174 °C.

For `C#Cc1cnc2c(NC(=O)c3c(Cl)cccc3Cl)cccc2c1`, the melting point is 219 to 220 °C.

Regarding `CC(=O)OCCOc1cc(-n2c(=O)cc(C(F)(F)F)n(C)c2=O)c(F)cc1Cl`, the melting point was in the range of 88 to 90 °C.

Regarding `CNc1nc(C)c(-c2sc(NC)nc2C)s1`, the melting point is > 280 °C.

Consider `COC(=O)c1cc2c3cc([N+](=O)[O-])ccc3n(C)c2s1`, for which the melting point lay within 269 to 271 °C.

Turning to `CCCCn1c(=O)c2c(NC)n[nH]c2n(Cc2ccccc2[N+](=O)[O-])c1=O`, the melting point was > 300 °C.

`N=C(NCc1cnccn1)NN=Cc1c(Cl)cccc1Cl` registered a melting point of 168 to 169 °C.

`COc1c(OCC(F)(F)F)ccnc1CO`: the melting point lay in the range of 107 to 108 °C.

With `O=S(=O)(Nc1ncnc(OCCO)c1-c1cccc(Cl)c1)c1ccc(Cl)cc1`, the melting point lay in the range of 178 to 180 °C.

In turn, `Nc1c2c(nc3ccccc13)CCC=C2` registered a melting point of 178 to 179 °C.

As for `CC(=O)NC1(c2ccc(C(C)O)cc2)CC1` (stereo not drawn), the melting point is 114 to 116 °C.

As for `NC1=CC(=O)C2CCCCC2C1` (stereo not drawn), the melting point lay within 208 to 210 °C.

The molecule `O=C(CCCCC(=O)c1ccc(F)cc1)c1ccc(F)cc1` registered a melting point of 165 to 167 °C.

In turn, `CSc1nc(-c2cccnc2)c(-c2ccccc2)n1C` showed a melting point of 123 to 127 °C.

The molecule `O=C(O)c1cn(C2CC2)c(-c2ccc3c(c2)OCO3)cc1=O` displayed a melting point of 211 to 212 °C.

Molecule `CC(=S)NCC1CN(c2ccc(N3CCC4(CC3)NC(=O)NC4=O)c(F)c2)C(=O)O1` (stereo not drawn) gave a melting point of 218 °C.

Consider `CCCc1cc(CO)cc(=O)[nH]1`, for which the melting point was 167 °C.

Regarding `CC(O)CC#Cc1cc(CN2CCOCC2)cc2c(=O)c(C(=O)NCc3ccc(Cl)cc3)cn(C)c12` (stereo not drawn), the melting point is 178 to 180 °C.

`CCC(=O)c1cc(C#N)c(=O)[nH]c1CC` gave a melting point of 243 to 245 °C.
